Results on four compounds are retold here after patent publication US11318182B1, “Plant extract for skin infections” (priority 2021, dated 2022).

Common to all, as to type: cell-based
Settings in all cases: plant extract 29 μg/ml

For one experiment, the system named is Bacillus cereus. Nature of the experiment: Growth inhibition zone on nutrient agar. How it is done: (§1) In the preferred embodiment, grinded garlic, ginger, papaya seed, clover bud, tamarind and the coconut oil components are extracted by 95% ethanol and kept in dark four days at room temperature. The extracted homogenous texture is filtered through Whatman filter paper no. 1 by using Thermo Scientific Vacuum USA. The filtered extract pH is adjusted to 5.6. A drop of Lavender is added to the final concentration and the extract is refrigerated in sealed, amber-colored bottles at 4° C. after the concentration is determined. […], Penicillium notatum, and Aspergillus niger used as fungal species. Known isolates of Escherichia coli, Bacillus serous and Staphylococcus aureus used as bacterial species. Sabouraud dextrose agar (SDA) medium and Nutrient agar plates (NAP) used to confirm in vitro inhibition of the fungus and bacteria in 24, 48 and 72 hours at room temperature and 37° C. respectively. The antimicrobial activity of plant-extract specified by the formation of an inhibition zone is measured by using Vernier calipers. Also, 28 individuals evaluated after using the mixed plant-extract within two weeks trial controlling fungal and bacterial infections of the skin. […] Staphylococcus aureus, Bacillus cereus and Escherichia coli grown on nutrient agar (NA). Aspergillus niger, Penicillium notatum and […] tested fungal species grown on Sabouraud dextrose agar (SDA). […] The SDA and NA plates were filled with 20 ml of media and solidified in 24 hours at 37° C. incubator before inoculation of the of the microorganisms and the products to be tested.

The test system of the next experiment is Escherichia coli. Nature of the experiment: Growth inhibition zone on nutrient agar. The procedure: as §1
In the next experiment the test system is Staphylococcus aureus. Nature of the experiment: Growth inhibition zone on nutrient agar. How it is done: as §1
Another experiment concerns Aspergillus niger. Nature of the experiment: Growth inhibition zone on Sabouraud dextrose agar. How it is done: as §1
A further experiment relates to Serratia marcescens. Nature of the experiment: Growth inhibition zone on Sabouraud dextrose agar. How it is done: as §1
The test system of the next experiment is Penicillium notatum. Nature of the experiment: Growth inhibition zone on Sabouraud dextrose agar. How it is done:
as §1

With `C=CCCCCCCCCC(=O)O` [Undecycleric add 25%, undecylenic acid], the “Growth inhibition by mm, B. cereus” value in the experiment with Bacillus cereus is 1.1 mm. The “Growth inhibition by mm, E. coli” value in the experiment on Escherichia coli amounted to 1.2 mm. Further, the “Growth inhibition by mm, S. Aureus” value in the experiment on Staphylococcus aureus worked out at 1.1 mm. The “Growth inhibition by mm, A. niger” value in the experiment with Aspergillus niger was 1.9 mm. Further, in the experiment with Serratia marcescens, the “Growth inhibition by mm, S. marcescens” value is given as 1.7 mm. For the same compound, in the experiment on Penicillium notatum, the “Growth inhibition by mm, P. notatum” value came out at 1.6 mm.
Consider `Clc1ccccc1C(c1ccccc1)(c1ccccc1)n1ccnc1` [Clotrimazole 1%, clotrimazole], for which the “Growth inhibition by mm, B. cereus” value in the experiment on Bacillus cereus turned out to be 1 mm. In the experiment with Escherichia coli, the “Growth inhibition by mm, E. coli” value is given as 2.2 mm. In addition, the “Growth inhibition by mm, S. Aureus” value in the experiment on Staphylococcus aureus worked out at 1.2 mm. Further, in the experiment with Aspergillus niger, the “Growth inhibition by mm, A. niger” value is given as 1.8 mm. The “Growth inhibition by mm, S. marcescens” value in the experiment on Serratia marcescens amounted to 1.8 mm. In addition, the “Growth inhibition by mm, P. notatum” value in the experiment on Penicillium notatum is listed as 2.1 mm.
Consider Penicillin, for which the “Growth inhibition by mm, B. cereus” value in the experiment on Bacillus cereus was 1.9 mm. The “Growth inhibition by mm, E. coli” value in the experiment with Escherichia coli is listed as 2.5 mm. In the experiment on Staphylococcus aureus, the “Growth inhibition by mm, S. Aureus” value was 1.9 mm. Further, in the experiment on Aspergillus niger, the “Growth inhibition by mm, A. niger” value is 1.7 mm. The “Growth inhibition by mm, S. marcescens” value with Serratia marcescens was 1.6 mm. In addition, the “Growth inhibition by mm, P. notatum” value in the experiment with Penicillium notatum is recorded as 1.4 mm.
For `CN(C)[C@@H]1C(O)=C(C(N)=O)C(=O)[C@@]2(O)C(O)=C3C(=O)c4c(O)cccc4[C@@](C)(O)[C@H]3C[C@@H]12` [Tetracycline], the “Growth inhibition by mm, B. cereus” value in the experiment with Bacillus cereus is 1.3 mm. Moreover, in the experiment with Escherichia coli, the “Growth inhibition by mm, E. coli” value is recorded as 1.2 mm. In addition, in the experiment with Staphylococcus aureus, the “Growth inhibition by mm, S. Aureus” value turned out to be 1.3 mm. Besides, the “Growth inhibition by mm, A. niger” value with Aspergillus niger was 0.8 mm. Moreover, the “Growth inhibition by mm, S. marcescens” value with Serratia marcescens worked out at 0.7 mm. Also, the “Growth inhibition by mm, P. notatum” value in the experiment with Penicillium notatum was determined as 0.7 mm.
